The record followed here is patent US10905656B2, “Methods and compositions for treating arteriosclerotic vascular diseases” (GOLDEN BIOTECHNOLOGY CORPORATION, priority 2012, dated 2021).

Data set [1] deals with A7r5 cells (rat aortic smooth muscle cells). The experiment in a line: Lactate dehydrogenase (LDH) activity assay, cytotoxicity. Format: cell-based. The conditions noted are these: 0 μg/ml-3 μg/ml, 24 hours. The text has this: Cells have plenty of lactate dehydrogenase (LDH). When cells are healthy, LDH cannot freely cross cell membrane. […] LDH activity in the culture medium is directly proportional to the number of dead cells. The cell viability can be measured quantitatively to detect absorbance by using colorimetric method at a wavelength of 492 nm. The change of the absorbance values come from the fact that LDH catalyzes the conversion of lactate to pyruvate with the concomitant production of NADH. The NADH, in the presence of diaphorase and tetrazolium salt INT, is used to drive the diaphorase-catalyzed production of red formazan product. The present experiment utilizes Cytotoxicity Assay Kit (Promega) to conduct culture medium LDH Quantitation assay.
(§1) 1. Adherence of cells: 2×10^4 cells/ml/well of A7r5 cells were seeded onto a 24-well plate and incubated at 37° C. for 24 hours.
2. Dosing: 500 ul/well different concentrations of compound 1 were formulated in culture medium containing 10% FBS/DMEM and incubated for 24 hours. […]
3. […] Absorbance was measured by ELISA reader at the 490 nm wavelength.
(§2) Potential cytotoxicity of Compound 1 to smooth muscle cells was tested. […] As shown in FIGS. 2A/2B, the cytotoxic effect of Compound 1 at different concentrations on smooth muscle cells (A7r5) was determined via MTT assay (FIG. 2A) and LDH assay (FIG. 2B).

The test system is the same in data set [2]. As to the kind of experiment: MTT assay, cytotoxic effect on smooth muscle cells. Format: cell-based. The conditions noted are these: 0 μg/ml-3 μg/ml, 24 hours.
Text: (§3) MTT assay is commonly used to determine cell proliferation, percent of viable cells, and cytotoxicity. MTT (3[4,5-dimethylthiazol-2-yl]2,5-diphenyltetrazolium bromide) is a yellow dye, which can be absorbed by the living cells and be reduced to purplish blue formazan crystals by succinate tetrazolium reductase in mitochondria. Formazan formation can therefore be used to assess and determine the survival rate of cells. A solubilization solution (usually either dimethyl sulfoxide, an acidified ethanol solution, or a solution of the detergent sodium dodecyl sulfate in diluted hydrochloric acid) is added to dissolve the insoluble purple formazan product into a colored solution. The absorbance of this colored solution can be quantified by measuring at a certain wavelength (usually between 500 and 600 nm) by a spectrophotometer. The more surviving cells, the higher the absorbance. The percentage of cell survival (%)=OD value of experimental group÷OD value of control group×100%. Procedure
1. […]
3. […] The survival rate of cells was calculated based on the measurement of absorption at the 570 nm wavelength by ELISA reader.
as §2

Data set [3] has as its system PDGF-stimulated A7r5 cells. The experiment in a line: Wound scratching test, PDGF-stimulated smooth muscle cell migration. In kind it is cell-based, Rattus norvegicus. The following applies: 3 μg/ml, 24 hours. The method, then: 1. A7r5 cells (5×10^6 cells/ml) were seeded onto a 6-well cell culture plate and incubated at 37° C. overnight.
2. 1×PBS was used to wash the wells twice. Compound 1 with different concentrations in DMEM culture medium containing 1% FBS was added and pretreated for 20 hours.
3. A cross-shape acellular space was created by a sterile 200 μl pipette tip and washed twice with 1×PBS.
4. After removing PBS, 2 ml PDGF in DMEM culture medium containing 1% FBS were added. The cells were photographed by a microscope at 0, 6, 12 and 24 hours, respectively from the time of adding PDGF.
The inhibition of Compound 1 on migration of smooth muscle cells (A7r5 cells) was investigated in a wound scratching test by measuring PDGF-stimulated cell migration distance. The PDGF-stimulated cell culture without Compound 1 treatment was used as positive control.

The test system of data set [4] is mice with carotid artery ligation. The experiment in a line: Carotid artery ligation model, neointima formation. Format: in vivo, C57BL/6J mice. The following applies: 60 mg/kg body weight oral gavage, from three days before ligation, 28 days; control higher than 3.0; p<0.001. From the text: Arteries are vessels that carry blood away from the heart. The carotid arteries are blood vessels that supply blood to the head, neck and brain. One carotid artery is position on each side of the neck. The right common carotid artery branches from the brachiocephalic artery and extends up the right side of the neck. The left common carotid artery branches from the aorta and extends up the left side of the neck. Each carotid artery branches into internal and external vessels near the top of the thyroid. Following the study by Hsing-Chun Chung (Dissertation, 2008, Southern Taiwan University), the carotid artery ligation was conducted on the left common carotid artery in mice to induce neointimal thickening.
This experiment used 8-week-old C57BL/6J male mice having about 25 g of body weight, which were purchased from National Laboratory Animal Center. These mice were maintained at the Laboratory Animal center of National Defense Medical Center on a 12 hour dark/12 hour light cycle in air conditional rooms (18-26° C., 30%-70% humidity).
1. The animals were given Compound 1 by oral gavage three days prior to the surgery and were continuously fed with Compound 1 for 28 days by oral gavage.
2. […]

The subject of data set [5] is ERK1/2. As to the kind of experiment: ERK1/2 phosphorylation in HepG2 by immunoblot. In kind it is cell-based, human. The following applies: HepG2, 1 h, immunoblot p-ERK1/2. As for the experimental part: FIG. 11A-B show illustrative effective results of the exemplary cyclohexenone Compound 1 stimulates ERK1/2 phosphorylation in HepG2 cell line. (2A), HepG2 cell line was serum-starved overnight and challenged with the indicated concentrations of Compound 1 for 1 h. Whole cell lysates were then immunoblotted with phosphor-ERK1/2 antibody and reprobed with β-actin antibody. Duplicated membrane was probed with ERK1/2 antibody. (2B), the relative expression level of p-ERK1/2 to β-actin was quantified by densitometry. Experiments were conducted in triplicate. Bar represented as mean±SEM.
HepG2 cells were cultured in MEM alpha medium (Invitrogen/Gibco BRL, Grand Island, N.Y., USA). […]
Sixty micrograms of total protein in cell lysate, which was measured using Bradford assay (Sigma-Aldrich, St. Louis, Mo.), was resolved on 12.5% SDS polyacrylamide gels. […] Blots were blocked with 3% BSA and probed with a 1:1,000 dilution of antibodies to phospho-p44/42 (ERK1/2)(Thr202/Tyr204) (Cell Signaling Technology, USA), p44/42MAPK(ERK1/2) (Cell Signaling Technology, USA) or β-actin (Sigma-Aldrich, St. Louis, Mo.), then horse radish-peroxidase (HRP)-conjugated secondary antibody and detected by 3,3′-diaminobenzidine (DAB) substrate kit for peroxidase (Vector Laboratories, Burlingame, Calif.). […]

The subject of data set [6] is PDGF-stimulated A7r5 cells. The experiment in a line: PDGF-stimulated smooth muscle cell proliferation, MTT assay. In kind it is cell-based, Rattus norvegicus. The following applies: 3 μg/ml, 20 hours pretreatment, PDGF 24 hours.
Text: as §3, §1
2. Dosing: 500 ul/well different concentrations of compound 1 were pretreated in culture medium containing 1% FBS/DMEM for 20 hours. […]
3. […] The survival rate of cells was calculated based on the measurement of absorption at the 570 nm wavelength by ELISA reader. […]

Data set [7] relates to LDLR mRNA. As to the kind of experiment: LDLR mRNA expression in HepG2 by RT-PCR. Format: cell-based, human. The conditions noted are these: HepG2, after addition of compound. The method, then: FIG. 10A-B show results of LDLR mRNA expression in HepG2 cell line induced by an exemplary cyclohexenone Compound 1. HepG2 cell line was serum-starved overnight and challenged with 20 μM Compound 1 at indicated time intervals (1A). Cells were then collected and the mRNA expression level of LDLR and GAPDH (internal control) were detected by RT-PCR. The relative expression level of LDLR to GAPDH was quantified by densitometry (1B). Experiments were conducted in triplicate. Bar represented as mean±SEM. * indicates p<0.05 and ** indicates p<0.01.
HepG2 cells were cultured in MEM alpha medium (Invitrogen/Gibco BRL, Grand Island, N.Y., USA). Cells were cultured at 37° C. in 5% CO2 in culture media supplemented with 10% fetal bovine serum (Invitrogen/Gibco BRL) and 100 U/ml streptomycin and penicillin (Invitrogen/Gibco BRL). For treatment, cells were seeded in six-well plates at 6.25×10^5 cells/well. On the following day, the media were changed to serum-free and the cells were serum-starved for 24 h. Compound 1 was dissolved in DMSO and diluted to the required concentration with serum-free medium. Cultures were then treated with diluted Compound 1 for the indicated time periods. […]
LDLR mRNA expression level was quantitative analysis by RT-PCR. […] The PCR products intensity was quantified by densitometry using Image-Pro Plus software (Media Cybernetics, Silver Spring, Md.).

Regarding `COC1=C(OC)C(O)C(C/C=C(\C)CC/C=C(\C)CCC=C(C)C)C(C)C1=O` (centres unmarked) [Compound 1, 4-hydroxy-2,3-dimethoxy-6-methyl-5-(3,7,11-trimethyldodeca-2,6,10-trienyl)cyclohex-2-enone], the “cytotoxicity (LDH assay)” value in data set [1] is “no cytotoxcity has been observed”. In data set [2], the “survival rate of cells (MTT assay)” value is “cell purification was not affected by the drug treatment”. Besides, the “decrease in PDGF-stimulated smooth muscle cell migration” value in data set [3] was “about 50%”. Further, the “average N/M ratio (neointima area/medial area)” value in data set [4] is 1.0. The “concentration enough to induce activation of ERK1/2” value in data set [5] came to 0.5 µM. Besides, the “reduction of PDGF-stimulated smooth muscle cell proliferation” value in data set [6] is “about 50%”. Besides, the “time at which LDLR mRNA expression was first increased” value in data set [7] is 2 h. In data set [7] (increased up to 6 h), the “time at which the LDLR mRNA increase reached a significant level” value is 4 h.
